One experiment concerns the target Human mTOR (FLAG-TOR) (Homo sapiens, UniProt P42345). The experiment in a line: mTOR kinase assay (DELFIA format, purified enzyme). Format: biochemical. The settings on record: read-out: IC50 mTOR.
For experiment [1], the system named is human breast MDA-MB-361 tumor cell line. The experiment in a line: In vitro cell culture growth assay (MTS), MDA-MB-361. The settings on record: Homo sapiens, MDA-MB-361, 72 h; MTS cell growth assay, three days after drug treatment; read-out: IC50 MDA-MB-361. Format: cell-based. In general terms: Tetrazolium dyes change colour on reduction, which living cells bring about.

The test system of experiment [2] is human prostate PC3-mm2 tumor cell line. The experiment in a line: In vitro cell culture growth assay (MTS), PC3-mm2. Format: cell-based. Conditions: Homo sapiens, PC3MM2, 72 h.
A further experiment deals with PI3K-α (Homo sapiens, UniProt P42336). The experiment in a line: PI3K-alpha fluorescence polarization assay. The settings on record: read-out: IC50 PI3Kα. For orientation: Fluorescence polarisation rises when a labelled molecule tumbles more slowly, as on binding a larger partner.
PI3K-α, sequence (P42336 whole entry, species assumed): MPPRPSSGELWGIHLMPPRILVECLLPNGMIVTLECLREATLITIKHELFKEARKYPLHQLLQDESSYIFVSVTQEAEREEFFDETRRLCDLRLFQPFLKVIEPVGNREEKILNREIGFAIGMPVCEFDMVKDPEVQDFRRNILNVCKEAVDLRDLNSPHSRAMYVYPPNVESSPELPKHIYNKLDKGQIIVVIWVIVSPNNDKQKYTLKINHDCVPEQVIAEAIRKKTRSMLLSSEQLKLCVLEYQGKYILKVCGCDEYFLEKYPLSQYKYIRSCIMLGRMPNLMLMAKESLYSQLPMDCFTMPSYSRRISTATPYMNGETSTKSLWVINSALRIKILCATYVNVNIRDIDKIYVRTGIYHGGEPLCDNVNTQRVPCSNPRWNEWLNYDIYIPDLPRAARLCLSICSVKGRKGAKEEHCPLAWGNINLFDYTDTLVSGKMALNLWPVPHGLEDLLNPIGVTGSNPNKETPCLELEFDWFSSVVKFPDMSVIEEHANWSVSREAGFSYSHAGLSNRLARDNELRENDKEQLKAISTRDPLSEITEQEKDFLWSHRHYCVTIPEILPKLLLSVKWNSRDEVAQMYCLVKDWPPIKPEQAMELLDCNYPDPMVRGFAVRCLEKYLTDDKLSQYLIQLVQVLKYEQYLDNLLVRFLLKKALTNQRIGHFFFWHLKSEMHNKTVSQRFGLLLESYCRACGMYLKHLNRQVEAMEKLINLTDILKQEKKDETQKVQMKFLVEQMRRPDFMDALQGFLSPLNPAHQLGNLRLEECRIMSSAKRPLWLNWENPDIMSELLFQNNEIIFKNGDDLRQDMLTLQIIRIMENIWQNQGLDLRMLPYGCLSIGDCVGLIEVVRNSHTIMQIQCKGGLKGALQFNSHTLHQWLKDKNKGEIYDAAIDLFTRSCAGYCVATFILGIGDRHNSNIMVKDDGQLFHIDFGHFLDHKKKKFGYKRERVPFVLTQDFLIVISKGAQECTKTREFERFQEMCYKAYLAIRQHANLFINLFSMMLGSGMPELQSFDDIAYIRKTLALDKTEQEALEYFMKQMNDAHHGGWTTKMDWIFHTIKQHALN
PI3K-α, sequence (P27986 whole entry partner, species assumed): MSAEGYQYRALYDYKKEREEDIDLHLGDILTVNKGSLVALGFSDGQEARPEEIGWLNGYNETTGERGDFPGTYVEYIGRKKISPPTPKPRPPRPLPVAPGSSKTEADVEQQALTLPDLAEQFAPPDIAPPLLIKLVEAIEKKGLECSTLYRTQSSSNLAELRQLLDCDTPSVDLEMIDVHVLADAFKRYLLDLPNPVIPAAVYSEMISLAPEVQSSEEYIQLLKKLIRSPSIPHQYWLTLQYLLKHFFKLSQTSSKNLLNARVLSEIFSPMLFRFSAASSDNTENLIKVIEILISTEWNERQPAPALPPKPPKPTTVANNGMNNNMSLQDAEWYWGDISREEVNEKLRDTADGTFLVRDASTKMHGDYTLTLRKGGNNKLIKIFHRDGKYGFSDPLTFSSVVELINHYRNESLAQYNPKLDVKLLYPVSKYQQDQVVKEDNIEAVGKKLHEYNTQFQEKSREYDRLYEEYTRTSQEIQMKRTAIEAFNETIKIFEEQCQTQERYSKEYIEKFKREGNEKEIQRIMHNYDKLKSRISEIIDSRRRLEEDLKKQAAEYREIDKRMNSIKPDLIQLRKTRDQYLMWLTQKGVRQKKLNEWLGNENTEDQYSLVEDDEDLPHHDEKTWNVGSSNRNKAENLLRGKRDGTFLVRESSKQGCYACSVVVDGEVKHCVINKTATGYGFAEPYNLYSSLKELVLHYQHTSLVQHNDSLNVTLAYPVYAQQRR
For another experiment, the target named is PI3K-γ (Homo sapiens, UniProt P48736). The experiment is described as follows: PI3K-gamma fluorescence polarization assay. The settings on record: read-out: IC50 PI3Kγ.
PI3K-γ, sequence (P48736 whole entry, species assumed): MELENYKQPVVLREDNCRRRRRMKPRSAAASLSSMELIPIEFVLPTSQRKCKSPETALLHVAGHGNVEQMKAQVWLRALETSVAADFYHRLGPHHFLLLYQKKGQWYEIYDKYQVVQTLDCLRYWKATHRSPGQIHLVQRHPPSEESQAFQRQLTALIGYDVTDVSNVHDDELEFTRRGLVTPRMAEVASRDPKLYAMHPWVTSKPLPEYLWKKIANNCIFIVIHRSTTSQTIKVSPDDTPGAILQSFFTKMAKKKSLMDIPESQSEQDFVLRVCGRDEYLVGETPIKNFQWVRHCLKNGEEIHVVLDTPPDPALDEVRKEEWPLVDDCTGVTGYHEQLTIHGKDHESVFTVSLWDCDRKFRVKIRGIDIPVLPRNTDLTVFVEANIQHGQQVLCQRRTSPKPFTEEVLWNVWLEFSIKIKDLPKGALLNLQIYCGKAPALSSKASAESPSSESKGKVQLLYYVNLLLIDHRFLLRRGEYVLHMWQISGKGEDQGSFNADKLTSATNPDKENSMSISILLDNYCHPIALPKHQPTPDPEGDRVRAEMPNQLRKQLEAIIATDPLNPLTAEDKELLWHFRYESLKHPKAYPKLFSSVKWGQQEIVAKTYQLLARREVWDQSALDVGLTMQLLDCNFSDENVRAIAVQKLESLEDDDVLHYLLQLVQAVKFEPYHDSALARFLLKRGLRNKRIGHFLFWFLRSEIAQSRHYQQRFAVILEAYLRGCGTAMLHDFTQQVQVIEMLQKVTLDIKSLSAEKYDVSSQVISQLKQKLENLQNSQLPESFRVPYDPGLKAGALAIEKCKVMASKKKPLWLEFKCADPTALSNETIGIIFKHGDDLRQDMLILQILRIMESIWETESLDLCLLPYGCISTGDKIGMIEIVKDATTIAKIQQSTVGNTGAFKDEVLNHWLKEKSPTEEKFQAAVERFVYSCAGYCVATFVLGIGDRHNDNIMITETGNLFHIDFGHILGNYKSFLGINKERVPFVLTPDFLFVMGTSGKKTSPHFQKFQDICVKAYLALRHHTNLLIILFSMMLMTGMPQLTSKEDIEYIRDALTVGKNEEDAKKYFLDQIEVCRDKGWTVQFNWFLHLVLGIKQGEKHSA
The mark [3] stands for this setting: MTS cell growth assay, three days after drug treatment, read-out: IC50 PC3-mm2.
Where [4] appears, read: MTS cell growth assay, three days after drug treatment, PC3-mm2 cells, read-out: IC50 PC3-mm2.

pIC50: −log10 of the molar value. Several values for one entry are separate records, joined by “and”; a condition that tells them apart may be missing. Identical values can stand only once. Like-named read-outs stand apart in the source and are kept apart here. A value given as a limit tells only on which side of the number the result lay.

By pIC50 is commonly meant −log10 of the IC50, conventionally taken in molar units.

Human mTOR (FLAG-TOR), sequence (P42345 1360-2549 limits assumed): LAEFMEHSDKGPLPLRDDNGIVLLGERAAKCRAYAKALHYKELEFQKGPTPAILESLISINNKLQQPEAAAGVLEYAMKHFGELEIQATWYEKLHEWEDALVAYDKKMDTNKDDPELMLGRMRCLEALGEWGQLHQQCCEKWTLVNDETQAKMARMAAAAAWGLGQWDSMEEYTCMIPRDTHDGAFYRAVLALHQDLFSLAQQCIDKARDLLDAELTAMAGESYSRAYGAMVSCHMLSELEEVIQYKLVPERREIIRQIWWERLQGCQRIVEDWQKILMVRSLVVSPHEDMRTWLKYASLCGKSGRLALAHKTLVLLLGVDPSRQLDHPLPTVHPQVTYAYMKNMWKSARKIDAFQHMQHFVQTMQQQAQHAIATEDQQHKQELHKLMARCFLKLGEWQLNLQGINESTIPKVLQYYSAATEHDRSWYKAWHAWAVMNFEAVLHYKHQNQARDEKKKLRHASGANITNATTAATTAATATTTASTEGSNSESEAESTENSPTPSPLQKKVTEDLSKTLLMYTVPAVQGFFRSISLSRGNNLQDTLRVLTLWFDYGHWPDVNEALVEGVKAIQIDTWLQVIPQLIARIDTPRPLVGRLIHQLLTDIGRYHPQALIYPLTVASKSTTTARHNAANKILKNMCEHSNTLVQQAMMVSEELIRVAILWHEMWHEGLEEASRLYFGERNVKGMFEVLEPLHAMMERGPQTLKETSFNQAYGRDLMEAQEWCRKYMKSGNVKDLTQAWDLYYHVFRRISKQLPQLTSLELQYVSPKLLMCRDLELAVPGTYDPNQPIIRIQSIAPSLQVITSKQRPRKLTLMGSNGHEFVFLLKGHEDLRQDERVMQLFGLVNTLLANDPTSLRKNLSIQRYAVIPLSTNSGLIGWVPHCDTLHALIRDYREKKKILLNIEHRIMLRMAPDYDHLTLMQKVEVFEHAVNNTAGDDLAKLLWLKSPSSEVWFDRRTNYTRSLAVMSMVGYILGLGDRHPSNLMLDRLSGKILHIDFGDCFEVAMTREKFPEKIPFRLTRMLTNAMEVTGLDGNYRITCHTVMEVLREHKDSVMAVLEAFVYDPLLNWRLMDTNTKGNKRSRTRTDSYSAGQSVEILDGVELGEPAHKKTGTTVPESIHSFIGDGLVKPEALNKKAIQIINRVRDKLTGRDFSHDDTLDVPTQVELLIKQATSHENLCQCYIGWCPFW

In the case of `O=C(Nc1ccc(C(=O)N2CCC(N3CCOCC3)CC2)cc1)Nc1ccc(-c2nc(N3CCOCC3)nc(N3CCOCC3)n2)cc1` [Example 72, 1-(4-(4,6-dimorpholino-1,3,5-triazin-2-yl)phenyl)-3-(4-(4-morpholinopiperidine-1-carbonyl)phenyl)urea], the pIC50 is 9.07 on Human mTOR (FLAG-TOR); 9.00 in experiment [1]; 7.89 in experiment [2] (setting [3]); 8.70 on PI3K-α; 7.72 at PI3K-γ.

As to `O=C(Nc1ccc(C(=O)NC2CN3CCC2CC3)cc1)Nc1ccc(-c2nc(N3CCOCC3)nc(N3CCOCC3)n2)cc1` (centres unmarked) [Example 73, 4-(3-(4-(4,6-dimorpholino-1,3,5-triazin-2-yl)phenyl)ureido)-N-(quinuclidin-3-yl)benzamide], the pIC50 at Human mTOR (FLAG-TOR) is 9.11; in experiment [1] it was 7.52; in experiment [2] (setting [3]), 6.97; on PI3K-α it was 9.52; at PI3K-γ, 8.15.

For `O=C(Nc1ccc(C(=O)N2CCC(N3CCCC3)CC2)cc1)Nc1ccc(-c2nc(N3CCOCC3)nc(N3CCOCC3)n2)cc1` [Example 74, 1-(4-(4,6-dimorpholino-1,3,5-triazin-2-yl)phenyl)-3-(4-(4-(pyrrolidin-1-yl)piperidine-1-carbonyl)phenyl)urea], the pIC50 at Human mTOR (FLAG-TOR) is 9.00 and 9.20; in experiment [1], > 8.52; in experiment [2] (setting [3]), 8.08; on PI3K-α, 9.40; on PI3K-α (listed as 179) it was 9.00; at PI3K-γ, 8.10. Further, the pIC50 at PI3K-γ (listed as 179) is 7.89.

For `O=C(Nc1ccc(C(=O)N2CCC(N3CCCCC3)CC2)cc1)Nc1ccc(-c2nc(N3CCOCC3)nc(N3CCOCC3)n2)cc1` [Example 75, 1-(4-(1,4′-bipiperidine-1′-carbonyl)phenyl)-3-(4-(4,6-dimorpholino-1,3,5-triazin-2-yl)phenyl)urea], the pIC50 at Human mTOR (FLAG-TOR) was 9.12; in experiment [1] it was > 8.52; in experiment [2] (read-out: IC50 PC3-mm2, MTS cell growth assay, three days after drug treatment), 8.15; on PI3K-α, 9.22; on PI3K-γ, 8.00.

Consider `O=C(Nc1ccc(C(=O)N2CCNCC2)cc1)Nc1ccc(-c2nc(N3CCOCC3)nc(N3CCOCC3)n2)cc1` [Example 77, 1-(4-(4,6-dimorpholino-1,3,5-triazin-2-yl)phenyl)-3-(4-(piperazine-1-carbonyl)phenyl)urea], for which the pIC50 was 9.17 at Human mTOR (FLAG-TOR); > 7.52 in experiment [1]; > 7.52 in experiment [2] (setting [3]); 9.52 on PI3K-α; 8.40 at PI3K-γ.

As to `C[C@H]1COCCN1c1nc(-c2ccc(NC(=O)Nc3ccncc3)cc2)nc(N2CCOCC2)n1` [Example 89, 1-(4-{4-[(3S)-3-methylmorpholin-4-yl]-6-morpholin-4-yl-1,3,5-triazin-2-yl}phenyl)-3-pyridin-4-ylurea], the pIC50 at Human mTOR (FLAG-TOR) is 8.80; in experiment [1], 7.52; in experiment [2] (setting [3]), 7.33; on PI3K-α, 8.00; at PI3K-γ, 7.51.

As for `Cc1cc(NC(=O)Nc2ccc(-c3nc(N4CCOCC4)nc(N4CCOC[C@@H]4C)n3)cc2)ccn1` [Example 92, 1-(4-{4-[(3S)-3-methylmorpholin-4-yl]-6-morpholin-4-yl-1,3,5-triazin-2-yl}phenyl)-3-(2-methylpyridin-4-yl)urea], the pIC50 on Human mTOR (FLAG-TOR) was 8.63; in experiment [1], 6.85; in experiment [2] (setting [3]), 7.06; on PI3K-α it was 7.96; on PI3K-γ, 7.04.

Regarding `CC(O)c1ccc(NC(=O)Nc2ccc(-c3nc(N4CCOCC4)nc(N4CCOC[C@@H]4C)n3)cc2)cc1` (stereo partly drawn) [Example 93, 1-[4-(1-hydroxyethyl)phenyl]-3-(4-{4-[(3S)-3-methylmorpholin-4-yl]-6-morpholin-4-yl-1,3,5-triazin-2-yl}phenyl)urea], the pIC50 was 8.07 on Human mTOR (FLAG-TOR); 7.38 in experiment [1]; 7.22 in experiment [2] (setting [3]); 7.92 at PI3K-α; 6.88 at PI3K-γ.

On to `CC(C)Oc1nc(-c2ccc(NC(=O)Nc3ccncc3)cc2)nc(N2CCOCC2)n1` [Example 94, 1-[4-(4-isopropoxy-6-morpholin-4-yl-1,3,5-triazin-2-yl)phenyl]-3-pyridin-4-ylurea], for which the pIC50 on Human mTOR (FLAG-TOR) is 9.00; in experiment [1] it was 7.27; in experiment [2] (setting [3]) it was 7.09; on PI3K-α, 8.30; at PI3K-γ, 7.25.

As to `COC(=O)c1ccc(NC(=O)Nc2ccc(-c3nc(OC(C)C)nc(N4CCOCC4)n3)cc2)cc1` [Example 95, methyl 4-({[4-(4-isopropoxy-6-morpholin-4-yl-1,3,5-triazin-2-yl)phenyl]carbamoyl}amino)benzoate], the pIC50 is 8.56 on Human mTOR (FLAG-TOR); 6.48 in experiment [1]; 6.44 in experiment [2] (setting [3]); 7.32 on PI3K-α; 7.00 on PI3K-γ.

For the compound `O=C(Nc1ccncc1)Nc1ccc(-c2nc(C3=CCOCC3)nc(N3CCOCC3)n2)cc1` [Example 100, 1-{4-[4-(3,6-Dihydro-2H-pyran-4-yl)-6-morpholin-4-yl-[1,3,5]triazin-2-yl]-phenyl}-3-pyridin-4-yl-urea], the pIC50 at Human mTOR (FLAG-TOR) was 8.46; in experiment [1], 7.25; in experiment [2] (setting [3]), 7.25; at PI3K-α, 8.30; at PI3K-γ it was 7.42.

Take `CN1C2CCC1CC(Oc1nc(-c3ccc(NC(=O)Nc4ccncc4)cc3)nc(N3CCOCC3)n1)C2` (centres unmarked) [Example 102, 1-{4-[4-(8-methyl-8-aza-bicyclo[3.2.1]oct-3-yloxy)-6-morpholin-4-yl-[1,3,5]triazin-2-yl]-phenyl}-3-pyridin-4-yl-urea]: the pIC50 on Human mTOR (FLAG-TOR) was 8.21; in experiment [1] it was 6.23; in experiment [2] (setting [3]) it was 6.07; on PI3K-α it was 8.22; at PI3K-γ it was 7.08.

Consider `CC(C)(C)OC(=O)N1CC(CNc2nc(-c3ccc(NC(=O)Nc4ccncc4)cc3)nc(N3CCOCC3)n2)C1` [Example 104, 3-({4-Morpholin-4-yl-6-[4-(3-pyridin-4-yl-ureido)-phenyl]-[1,3,5]triazin-2-ylamino}-methyl)-azetidine-1-carboxylic acid tert-butyl ester], for which the pIC50 is 7.82 on Human mTOR (FLAG-TOR); 6.39 in experiment [1]; 6.16 in experiment [2] (setting [3]); 7.72 on PI3K-α; 6.63 at PI3K-γ.

For the compound `O=C(Nc1ccncc1)Nc1ccc(-c2nc(NCC3CNC3)nc(N3CCOCC3)n2)cc1` [Example 105, 1-(4-{4-[(azetidin-3-ylmethyl)-amino]-6-morpholin-4-yl-[1,3,5]triazin-2-yl}-phenyl)-3-pyridin-4-yl-urea], the pIC50 on Human mTOR (FLAG-TOR) was 7.52; in experiment [1], 5.43; in experiment [2] (setting [3]), < 5.00; at PI3K-α, 7.85; at PI3K-γ, 6.95.

For the compound `O=C(Nc1ccncc1)Nc1ccc(-c2nc(N3CCOCC3)nc(N3CCC4(CC3)OCCO4)n2)cc1` [Example 130, 1-{4-[4-(1,4-dioxa-8-azaspiro[4.5]dec-8-yl)-6-morpholin-4-yl-1,3,5-triazin-2-yl]phenyl}-3-pyridin-4-ylurea], the pIC50 at Human mTOR (FLAG-TOR) was 8.10 and 7.91; in experiment [1], 6.72; in experiment [2] (setting [4]) it was 6.38; in experiment [2] (setting [3]), 6.38; on PI3K-α, 7.85; on PI3K-α (listed as 705), 7.87. Further, at PI3K-γ, the pIC50 was 6.88.

Turning to `O=C(Nc1ccc(-c2nc(N3CCOCC3)nc(N3CCC4(CC3)OCCO4)n2)cc1)Nc1cccnc1` [Example 131, 1-{4-[4-(1,4-dioxa-8-azaspiro[4.5]dec-8-yl)-6-morpholin-4-yl-1,3,5-triazin-2-yl]phenyl}-3-pyridin-3-ylurea], the pIC50 at Human mTOR (FLAG-TOR) is 7.84; in experiment [1], 6.16; in experiment [2] (setting [4]), 6.08; in experiment [2] (setting [3]), 6.08; at PI3K-α, 7.60; at PI3K-α (listed as 706), 7.59. Moreover, on PI3K-γ, the pIC50 was 6.47.

For `O=C(Nc1ccccc1)Nc1ccc(-c2nc(N3CCOCC3)nc(N3CCC4(CC3)OCCO4)n2)cc1` [Example 132, 1-{4-[4-(1,4-dioxa-8-azaspiro[4.5]dec-8-yl)-6-morpholin-4-yl-1,3,5-triazin-2-yl]phenyl}-3-phenylurea], the pIC50 on Human mTOR (FLAG-TOR) is 7.59 and 7.47; in experiment [1] it was 6.23; in experiment [2] (setting [4]) it was 5.99; in experiment [2] (setting [3]), 5.99; on PI3K-α, 7.85; at PI3K-γ, 6.63. Also, the pIC50 on PI3K-γ (listed as 707) was 6.63.

`CN(C)c1ccc(NC(=O)Nc2ccc(-c3nc(N4CCOCC4)nc(N4CCC5(CC4)OCCO5)n3)cc2)cc1` [Example 133, 1-[4-(dimethylamino)phenyl]-3-{4-[4-(1,4-dioxa-8-azaspiro[4.5]dec-8-yl)-6-morpholin-4-yl-1,3,5-triazin-2-yl]phenyl}urea]: the pIC50 on Human mTOR (FLAG-TOR) is 7.37; in experiment [1], 6.10; in experiment [2] (setting [4]) it was 5.71; in experiment [2] (setting [3]), 5.71; on PI3K-α it was 7.41; at PI3K-α (listed as 708) it was 7.40. Moreover, the pIC50 on PI3K-γ and on PI3K-γ (listed as 708) was 5.05 each time.
